The text below walks through data of US20100286076A1, “ECTOPARASITICIDAL METHODS AND FORMULATIONS” (priority 2009, published 2010).

One test concerns House Fly. Nature of the test: Adult House Fly Assay (AhsF), feeding on compound-soaked dental wicks, 24 h mortality. Further details: species or system Musca domestica. As to conditions: adult house flies. The protocol:
Adult Stable or House Fly Assay (ASF, AhsF). This assay is conducted essentially as described in White, W. H., S. M. Bauer, X. Zhao et al., Comparison of in vitro and in vivo ectoparasiticide activity of an experimental benzimidazole-carbamate with permethrin and amitraz, J. Med. Entomol. 42, 207-211 (2005); and White, W. H., C. M. McCoy, J. A. Meyer et al., Knockdown and mortality comparisons among spinosad-, imidacloprid-, and methomyl-containing baits against susceptible Musca domestica (Diptera: Muscidae) under laboratory conditions, J. Econ. Entomol. 100, 155-163 (2007).
Test material is formulated in DMSO at 10 mM. Doubling dilutions in like solvent are made to yield 10 testing levels. Materials are diluted in either bovine serum (stable flies) or 5% glucose solution (house flies) to obtain desired exposure concentrations from 200-0.39 μM. Approximately 3 ml of diluted test material is placed into a test tube (n=3 per test level) and a dental wick is used to absorb fluid. One dental wick is placed into a small weigh boat inside of a 100 mm Petri dish. Approximately 10 mixed-sex adult flies are anesthetized using carbon dioxide and counted into each dish. Dishes are incubated at 27° C. and 50-70% relative humidity. Flies recover from anesthesia and feed on compound-soaked dental wicks. After 24 h, live/dead flies are enumerated. Nonlinear regression is used to model dose-mortality relationship and obtain relative potency (LD50) data compared to contemporaneous controls (solvent-only or permethrin).

Test [1] concerns adult stage kennel ticks, Rhipicephalus sanguineus. Nature of the test: Oral administration per os to dogs, experimental kennel tick infestation. Type of test: in vivo. As to conditions: at the doses tested (30, 50 or 100 mg/kg). The protocol:
(§1) Oral administration per os to dogs. Given the above data, investigation into oral efficacy in dogs was begun. The investigation was conducted to evaluate 1) efficacy for a point dose of 30 mg/kg, against experimental, concurrent infestations with the adult cat flea, Ctenocephalides felis; adult stage American dog ticks, Dermacentor variabilis; and adult stage kennel ticks, Rhipicephalus sanguineus; 2) plasma concentrations of the 30 mg/kg treated dogs; and 3) efficacy for point dosages of either 50 mg/kg or 100 mg/kg, against experimental infestations with adult stage kennel ticks, R. sanguineus.
(§2) Sixteen dogs were selected for two groups of eight dogs (4 male: 4 female) per group. One treatment group received spinetoram, while the other group was left untreated. The dogs were housed individually in concrete-floored chain-link kennels both inside and outside. During the study period the dogs were fed a dry dog chow, except for the day of treatment (day 0) when they received wet canned food. The dogs had ad libitum access to water. […]
(§3) Each dog was experimentally infested with about 100 adult fleas, and 50 ticks of each species on test days—1,5,12,19, 28, 35, and 42, with additional flea infestations conducted on days 49 and 56. […] Knockdown activity (Day 1) was determined using 24 hr post-dosing comb counts. […]

The subject of test [2] is adult stage American dog ticks, Dermacentor variabilis. The experiment in a line: Oral administration per os to dogs, experimental American dog tick infestation. Type of test: in vivo. As to conditions: at the doses tested (30 mg/kg). The protocol:
as §1, §2, §3

Consider Spinetoram, for which the EC50 with House Fly (24 h, 5% glucose solution, read-out: Potency (24 h EC50 μM)) turned out to be 2.18 µM. In addition, the “Spinetoram/Spinosad Potency Ratio” value in the test on House Fly (24 h EC50) is recorded as 5.5. Besides, the activity against ticks entry in test [1] and in test [2] was “did not demonstrate statistically significant activity” each time.

For orientation: EC50 means the concentration at which the effect is half-maximal.
